Data set [1] deals with T1, α1‐antitrypsin (Homo sapiens, UniProt P01009, E366K).
T1 construct: random insertion of the human Z α1‐antitrypsin gene; from tissue; host or cells: hemizygous Z α1-antitrypsin transgenic mice (liver, plasma)
The experiment in a line: Intrahepatic α1‐antitrypsin by ELISA in Z α1‐antitrypsin transgenic mice. In kind it is in vivo, mouse. As for the experimental part: Since GSK716 blocks polymer formation in cells, we explored the effect of dosing GSK716 on liver polymer levels. […] GSK716 was dosed at 100 mg/kg three times a day for 20 days. […] Liver polymer levels were investigated by staining with 2C1 anti‐polymer monoclonal antibody and were scored blind by a pathologist or by quantification using an algorithm to measure all areas of positive staining (Fig EV1). There was no difference observed in total liver polymer load when assessed by manual or quantitative scoring (Fig 6B and C). There was no significant fibrosis in any of the liver sections. Intrahepatic α1‐antitrypsin was also assessed by ELISA. The vast majority (95–100%) of α1‐antitrypsin within the liver was polymer with the monomer typically being below the level of detection. Treatment with GSK716 increased the monomer measured in liver homogenate by approx. fourfold in keeping with the changes seen in blood.
On the technique in general: ELISA stands for enzyme-linked immunosorbent assay.

In data set [2] the test system is Z α1‐antitrypsin polymers in CHO cells. The experiment in a line: Soluble and insoluble polymers in CHO cells expressing Z α1‐antitrypsin (NP‐40 fractions, 2C1 immunoprecipitation, immunoblot). The settings on record: pre‐treatment 48 h with 10 μM GSK716, CHO cells induced with doxycycline. In kind it is cell-based. As for the experimental part:
(§1) Figure 2 GSK716 inhibits polymerisation of Z α1‐antitrypsin in cell models of disease • A GSK716 was added to CHO‐TET‐ON‐Z‐A1AT cells (Ordóñez et al, 2013) with simultaneous induction of Z α1‐antitrypsin expression using doxycycline, and polymer load was quantified with the 2C1 monoclonal antibody that is specific to pathological polymers of α1‐antitrypsin (Miranda et al, 2010). […] Data were normalised to vehicle and a control compound from the GSK716 series at saturating concentration. […] It induced an approximately threefold increase in secreted levels of Z α1‐antitrypsin compared with vehicle control. This was apparent even after polymers had been allowed to form. Scale bar: 100 µm. Data presented as mean ± SD, n = 8 (secretion) and n = 6 (polymer inhibition). • E CHO tetracycline‐inducible cells expressing Z α1‐antitrypsin were induced with 0.5 μg/ml doxycycline for 48 h and treated with 10 μM GSK716. […] For every time point, NP‐40‐soluble and NP‐40‐insoluble fractions were separated and immunoprecipitated with the 2C1 mAb and resolved by 4–12% w/v SDS–PAGE and α1‐antitrypsin detected by immunoblotting. […] Cell viability was measured by Cell Counting Kit‐8. […] Samples were resolved by 4–12% w/v acrylamide SDS–PAGE and detected by autoradiography. • H The graphs show the effect of GSK716 on intracellular and extracellular Z α1‐antitrypsin (mean ± SEM, n = 2). […]
(In western blotting, separated proteins are transferred to a membrane and probed.)

Data set [3] concerns the target MRGPRX2 (Homo sapiens, UniProt Q96LB1). As to the kind of experiment: Off‐target panel: MRGPRX2 Agonist (DRX). The settings on record: read-out: Mean (PXC50). In kind it is cell-based. As for the experimental part:
(§2) GSK716 selectivity and PK properties were profiled in order to investigate the suitability of GSK716 for progression into in vivo studies and the potential for taking it forward as a clinical candidate for testing in humans. Since GSK716 results in loss of inhibitory activity of α1‐antitrypsin, the effect of the compound was assessed on other closely related serpins. […] Furthermore, there were no off‐target effects in a panel of assays considered predictive of known safety liabilities that precluded further development of GSK716 (Table EV1).

In data set [4] the target is Glucocorticoid Receptor (Homo sapiens, UniProt P04150). The experiment in a line: Off‐target panel: Glucocorticoid Receptor. In kind it is cell-based. As to conditions: Agonist, read-out: Mean (PXC50). As to the method: as §2
Glucocorticoid Receptor, sequence (P04150 whole entry, species assumed): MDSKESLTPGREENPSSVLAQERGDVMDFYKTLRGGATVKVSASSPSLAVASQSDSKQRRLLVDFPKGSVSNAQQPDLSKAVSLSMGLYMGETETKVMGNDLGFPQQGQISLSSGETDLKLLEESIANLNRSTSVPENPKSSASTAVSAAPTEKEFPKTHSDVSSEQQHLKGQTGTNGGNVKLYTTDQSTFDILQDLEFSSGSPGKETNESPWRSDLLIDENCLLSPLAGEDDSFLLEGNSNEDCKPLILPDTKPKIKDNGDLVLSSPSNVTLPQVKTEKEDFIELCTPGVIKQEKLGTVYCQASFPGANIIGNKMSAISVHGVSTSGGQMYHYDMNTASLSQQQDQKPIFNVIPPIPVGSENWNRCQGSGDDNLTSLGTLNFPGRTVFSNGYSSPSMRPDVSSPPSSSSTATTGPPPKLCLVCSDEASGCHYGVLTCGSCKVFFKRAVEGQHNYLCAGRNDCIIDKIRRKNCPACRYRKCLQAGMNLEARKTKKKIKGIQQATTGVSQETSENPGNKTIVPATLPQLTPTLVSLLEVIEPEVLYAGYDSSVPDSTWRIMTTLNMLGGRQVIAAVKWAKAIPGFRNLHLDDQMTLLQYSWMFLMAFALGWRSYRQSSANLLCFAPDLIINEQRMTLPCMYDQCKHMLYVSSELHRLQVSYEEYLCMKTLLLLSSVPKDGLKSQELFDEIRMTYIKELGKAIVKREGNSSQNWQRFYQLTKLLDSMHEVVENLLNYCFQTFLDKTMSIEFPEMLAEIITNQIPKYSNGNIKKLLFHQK
Data set [5] concerns the target OPRK1 (Homo sapiens, UniProt P41145). As to the kind of experiment: Off‐target panel: OPRK1. In kind it is cell-based. As for the experimental part:
as §2

The target in data set [6] is Bile Salt Export Pump (Homo sapiens, UniProt O95342). The experiment in a line: Off‐target panel: Bile Salt Export Pump. In kind it is in vitro ADME. The settings on record: Inhibition, read-out: Mean (PXC50) (converted). As for the experimental part: as §2
Bile Salt Export Pump, sequence (O95342 whole entry, species assumed): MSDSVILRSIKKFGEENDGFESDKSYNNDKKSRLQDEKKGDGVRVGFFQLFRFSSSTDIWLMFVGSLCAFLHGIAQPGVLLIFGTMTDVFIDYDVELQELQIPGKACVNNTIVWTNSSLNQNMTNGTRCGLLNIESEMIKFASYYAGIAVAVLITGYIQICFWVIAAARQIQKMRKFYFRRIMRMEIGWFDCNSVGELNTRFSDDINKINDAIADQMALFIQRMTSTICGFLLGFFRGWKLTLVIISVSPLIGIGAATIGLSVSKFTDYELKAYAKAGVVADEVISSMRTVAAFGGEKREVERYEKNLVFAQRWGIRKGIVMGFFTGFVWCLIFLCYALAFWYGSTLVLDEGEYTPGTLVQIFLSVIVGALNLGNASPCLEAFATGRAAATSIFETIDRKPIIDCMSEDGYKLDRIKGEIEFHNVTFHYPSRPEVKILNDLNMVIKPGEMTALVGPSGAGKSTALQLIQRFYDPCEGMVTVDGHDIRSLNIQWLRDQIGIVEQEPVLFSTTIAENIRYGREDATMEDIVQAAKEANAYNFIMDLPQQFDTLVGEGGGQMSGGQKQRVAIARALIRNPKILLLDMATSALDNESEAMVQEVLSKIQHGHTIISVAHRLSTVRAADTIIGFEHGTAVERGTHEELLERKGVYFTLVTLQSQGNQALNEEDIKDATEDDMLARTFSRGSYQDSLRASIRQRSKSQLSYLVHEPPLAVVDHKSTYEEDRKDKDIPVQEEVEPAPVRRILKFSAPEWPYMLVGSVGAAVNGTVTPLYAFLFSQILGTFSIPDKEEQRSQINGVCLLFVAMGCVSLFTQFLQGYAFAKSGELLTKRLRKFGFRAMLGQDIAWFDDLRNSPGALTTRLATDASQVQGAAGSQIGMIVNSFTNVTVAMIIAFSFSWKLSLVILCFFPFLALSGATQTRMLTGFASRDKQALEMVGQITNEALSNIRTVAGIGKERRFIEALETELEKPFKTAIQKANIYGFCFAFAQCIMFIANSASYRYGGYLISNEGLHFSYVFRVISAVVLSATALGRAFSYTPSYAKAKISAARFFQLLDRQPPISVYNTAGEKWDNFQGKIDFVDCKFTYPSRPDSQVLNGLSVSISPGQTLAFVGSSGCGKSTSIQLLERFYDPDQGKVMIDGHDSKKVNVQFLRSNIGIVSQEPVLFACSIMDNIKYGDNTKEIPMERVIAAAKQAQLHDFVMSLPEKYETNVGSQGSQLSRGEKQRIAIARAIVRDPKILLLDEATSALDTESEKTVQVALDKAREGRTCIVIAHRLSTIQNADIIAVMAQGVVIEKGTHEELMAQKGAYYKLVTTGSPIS
Data set [7] addresses Serotonin 5HT2A (Homo sapiens, UniProt P28223). The experiment in a line: Off‐target panel: Serotonin 5HT2A (DRX). In kind it is cell-based. As for the experimental part: as §2
For data set [8], the system named is Z α1‐antitrypsin in CHO‐K1 Tet‐On cells. As to the kind of experiment: Pulse‐chase of Z α1‐antitrypsin in CHO‐K1 Tet‐On cells. In kind it is cell-based. The settings on record: 10 μM GSK716. As for the experimental part: as §1
A short description of data set [9]: ChromLogD. In kind it is physicochemical. As to conditions: pH 7.4; pH7.4. As to the method:
ChromLogD was measured as previously described (Valkó et al, 1997).

From paper PMC7933930, “Development of a small molecule that corrects misfolding and increases secretion of Z α1‐antitrypsin” (EMBO Molecular Medicine, 2021) come the findings set out here.

By chromatographic logD is commonly meant lipophilicity estimated from chromatographic retention. Higher therefore signals higher lipophilicity.

Serotonin 5HT2A, sequence (P28223 whole entry): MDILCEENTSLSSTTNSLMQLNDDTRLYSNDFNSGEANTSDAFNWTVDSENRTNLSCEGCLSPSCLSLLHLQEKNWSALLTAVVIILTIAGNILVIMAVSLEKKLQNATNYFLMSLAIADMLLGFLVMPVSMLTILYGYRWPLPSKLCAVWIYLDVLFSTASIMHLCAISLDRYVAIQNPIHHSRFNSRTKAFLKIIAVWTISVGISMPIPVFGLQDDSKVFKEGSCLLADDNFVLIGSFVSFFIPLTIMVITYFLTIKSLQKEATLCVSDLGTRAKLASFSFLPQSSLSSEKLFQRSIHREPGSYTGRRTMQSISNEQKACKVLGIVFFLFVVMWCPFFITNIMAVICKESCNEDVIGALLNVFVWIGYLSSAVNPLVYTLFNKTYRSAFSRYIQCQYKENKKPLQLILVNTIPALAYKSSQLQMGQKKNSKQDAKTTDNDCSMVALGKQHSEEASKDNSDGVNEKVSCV
T1 sequence (P01009 25-418 E366K): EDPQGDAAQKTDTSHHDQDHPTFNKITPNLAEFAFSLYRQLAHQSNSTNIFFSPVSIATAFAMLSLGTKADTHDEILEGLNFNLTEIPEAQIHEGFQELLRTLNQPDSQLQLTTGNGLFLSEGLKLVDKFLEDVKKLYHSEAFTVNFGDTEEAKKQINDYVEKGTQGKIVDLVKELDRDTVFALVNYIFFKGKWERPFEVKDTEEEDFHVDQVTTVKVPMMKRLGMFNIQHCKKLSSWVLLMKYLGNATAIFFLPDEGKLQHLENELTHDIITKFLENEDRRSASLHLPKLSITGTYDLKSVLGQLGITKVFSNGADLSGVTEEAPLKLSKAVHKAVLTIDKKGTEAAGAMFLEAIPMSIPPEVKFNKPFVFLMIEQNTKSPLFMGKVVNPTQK
OPRK1, sequence (P41145 whole entry, species assumed): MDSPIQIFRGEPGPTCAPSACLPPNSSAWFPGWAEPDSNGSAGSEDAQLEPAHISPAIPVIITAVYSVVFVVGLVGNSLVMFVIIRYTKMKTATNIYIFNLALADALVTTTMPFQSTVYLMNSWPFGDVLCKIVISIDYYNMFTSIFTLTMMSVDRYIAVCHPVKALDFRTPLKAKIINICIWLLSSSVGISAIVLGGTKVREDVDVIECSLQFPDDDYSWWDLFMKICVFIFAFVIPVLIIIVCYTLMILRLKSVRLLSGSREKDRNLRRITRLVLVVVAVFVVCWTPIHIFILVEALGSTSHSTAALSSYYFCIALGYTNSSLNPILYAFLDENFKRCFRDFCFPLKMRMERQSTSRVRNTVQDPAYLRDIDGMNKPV
MRGPRX2, sequence (Q96LB1 whole entry, species assumed): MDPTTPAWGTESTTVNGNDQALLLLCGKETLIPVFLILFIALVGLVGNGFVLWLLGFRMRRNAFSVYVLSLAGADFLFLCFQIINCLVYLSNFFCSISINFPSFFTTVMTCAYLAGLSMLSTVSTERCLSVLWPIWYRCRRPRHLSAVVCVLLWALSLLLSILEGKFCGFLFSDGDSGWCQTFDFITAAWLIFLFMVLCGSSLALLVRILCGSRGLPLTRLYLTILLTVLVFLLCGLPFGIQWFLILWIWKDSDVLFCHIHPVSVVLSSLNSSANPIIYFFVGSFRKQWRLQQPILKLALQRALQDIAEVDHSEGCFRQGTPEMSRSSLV

As to `CCC[C@@H](NC(=O)c1cccc2c1CC(=O)N2)[C@@H](O)c1cccc(F)c1C` [GSK716], in data set [1], the “increase of monomer measured in liver homogenate” value is given as “approx. fourfold”. In addition, the “formation of soluble and insoluble polymers” value in data set [2] is listed as “significantly reduced”. Moreover, the EC50 in data set [3], in [4], in data set [5] and in data set [7] was above 100 µM throughout. The IC50 in data set [6] is 100 µM; in data set [7], 63.1 µM. For the same compound, in [8], the “intracellular polymers, clearance and secretion in pulse‐chase” value was “abolished intracellular polymers”. The chromatographic logD in [9] amounted to 3.8.
